These results are taken from PubChem BioAssay (NCI).

What all share (assay): growth of human tumour cells (NCI), 48 h
The subject of test [1] is 786-0 renal.
Test [2] relates to A498 renal.
Test [3] deals with A549 NSCLC.
Test [4] relates to HCT-116 colon.
The subject of test [5] is M14 melanoma.
For test [6], the system named is MOLT-4 leukemia.
Test [7] deals with OVCAR-3 ovarian.
The subject of test [8] is OVCAR-5 ovarian.
Test [9] has as its system RPMI-8226 leukemia.
Test [10] deals with T-47D breast.

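96-well plates; 48 h exposure; 5 concentrations. Endpoints by linear interpolation between flanking doses. Not reached: highest tested concentration assigned. GI50: concentration for 50% inhibition of growth. TGI: concentration producing complete growth inhibition.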 Where only a bound is given, the exact number is not on record here.

With `CCOC(=O)Nc1ccc(C(=O)/C=C/c2ccccc2)cc1`, the GI50 in [1] is 26.3 µM; in [2], 26.1 µM; in test [3], 30.1 µM; in test [4], 3.31 µM; in test [5] it was 19.1 µM; in test [6] it was 27.9 µM. In addition, the GI50 was 18.9 µM in [7], 28.9 µM in [8], 3.76 µM in [9] and 21.6 µM in test [10]. The TGI was 81.5 µM in test [1]; 72.6 µM in test [2]; over 100 µM in test [3]; 11.4 µM in test [4]; 44.3 µM in test [5]; over 100 µM in test [6]. Moreover, the TGI is 75.3 µM in [7], 90.5 µM in test [8], 22.5 µM in test [9] and over 100 µM in [10].
Take `O=C1C(CO)=C[C@@H](O)[C@H]2O[C@@H]12`: the TGI in test [1], in test [2], in test [3], in test [4], in test [5] and in test [6] was over 100 µM throughout. Further, the TGI in test [7], in test [8], in test [9] and in [10] was over 100 µM throughout.
In the case of `C[n+]1cc2cc3c(cc2c2ccccc21)OCO3`, the GI50 in test [1] was 12.4 µM; in [2], 1.05 µM; in test [3] it was 2.41 µM; in test [4] it was 3.58 µM; in [5], 16 µM; in test [6], 4.02 µM. The GI50 was 3.13 µM in [7], 16.5 µM in test [8], 3.39 µM in test [9] and 2.95 µM in [10]. In addition, the TGI in [1] was over 100 µM; in test [2], 8.57 µM; in [3], 14.4 µM; in test [4] it was over 100 µM; in test [5] it was over 100 µM; in [6], over 100 µM. For the same compound, the TGI in [7] was 19.4 µM; in test [8], over 100 µM; in [9], 36.4 µM; in test [10] it was 14.4 µM.
As to `c1ccc2c(-c3cnn4cc(-c5ccc(N6CCNCC6)cc5)cnc34)ccnc2c1`, the GI50 in [1] was 0.527 µM; in test [2], 1.43 µM; in test [3], 0.766 µM; in test [4], 0.313 µM; in test [5], 0.297 µM; in test [6], 0.885 µM. Further, the GI50 in [7] was 1.41 µM; in [8], 0.806 µM; in [9], 0.327 µM; in [10] it was 1.42 µM. Moreover, the TGI was determined as 1.03 µM in test [1]; 2.87 µM in test [2]; 1.99 µM in test [3]; 1.19 µM in test [4]; 0.962 µM in [5]; 2.34 µM in test [6]. In addition, the TGI in test [7] was determined as 2.72 µM; in test [8] it was 2.24 µM; in test [9], 0.931 µM; in test [10], 3.2 µM.
In the case of `O=C1Nc2ccc(CN3CCOC3=O)cc2/C1=C/c1cc(CN2CCOCC2)c[nH]1`, the GI50 in test [1] is 62.5 µM; in test [2], over 45.2 µM; in test [3] it was 49.7 µM; in [4] it was 37.2 µM; in test [5] it was 34 µM; in test [6] it was 28.5 µM. Also, the GI50 in test [7] is 47.6 µM; in [8], over 100 µM; in [9], 19.2 µM; in [10], 24.9 µM. For the same compound, the TGI in test [1] was over 100 µM; in [2] it was over 100 µM; in test [3], over 100 µM; in test [4], over 100 µM; in test [5] it was over 93.9 µM; in test [6], 78.7 µM. In addition, the TGI is over 100 µM in test [7], over 100 µM in test [8], 53.7 µM in [9] and over 88.3 µM in test [10].
Take `CNC(=O)/C(=C/c1ccc(OC)cc1)c1cc(OC)c(OC)c(OC)c1`: the TGI was over 100 µM in test [1]; over 43.4 µM in [2]; over 100 µM in test [3]; over 72.4 µM in test [4]; over 34.6 µM in [5]; over 100 µM in test [6]. In addition, the TGI in test [7] is 2.5 µM; in [8], over 93.3 µM; in [9], over 100 µM; in [10] it was over 100 µM.
For the compound `CC(=O)N1N=C(c2ccc(Nc3nc(Nc4ccc(F)cc4)nc(Nc4ccc(Cl)cc4)n3)cc2)CC1c1ccc(N(C)C)cc1` (stereo unspecified), the GI50 in [1] is 3.65 µM; in test [2], 14.4 µM; in test [3], 4.27 µM; in [4] it was 2.42 µM; in [5], 3.05 µM; in test [6], 4.2 µM. The GI50 in test [7] is 9.51 µM; in test [8] it was 14 µM; in test [9], 4.15 µM; in test [10], 2.01 µM. In addition, the TGI in [1] was determined as 13.7 µM; in test [2] it was 50.5 µM; in [3], 43 µM; in test [4], 10.1 µM; in [5], 10.8 µM; in test [6], 30.9 µM. Besides, the TGI in [7] was 31.7 µM; in [8], 43.6 µM; in [9] it was over 100 µM; in test [10] it was 16 µM.
With `N=C1N=C(N)S/C1=C\c1ccc2ncccc2c1`, the GI50 is over 25 µM in test [1]; 13.7 µM in [2]; over 25 µM in [3]; over 25 µM in test [4]; over 25 µM in test [5]; over 25 µM in test [6]. Also, the GI50 in [7], in test [8], in test [9] and in test [10] was over 25 µM in each case. The TGI in test [1], in test [2], in test [3], in test [4], in test [5] and in test [6] was over 25 µM each time. The TGI in test [7], in test [8], in [9] and in test [10] was over 25 µM in each case.
`C/C(=C1/N=C(c2ccccc2)OC1=O)c1ccccc1`: the TGI in [1], in [2], in test [3], in test [4], in test [5] and in test [6] was over 100 µM throughout. In addition, the TGI in [7] is over 100 µM; in [8], over 100 µM; in [9], 68.4 µM; in [10], over 100 µM.
Take `COC1C(O)CC(OC2CC(OC3CC(O[C@@H]4C(=O)c5c(cc6cc(OC7CC(OC8CC(O)C(O)C(C)O8)C(O)C(C)O7)c(C)c(O)c6c5O)C[C@H]4[C@H](OC)C(=O)[C@@H](O)[C@@H](C)O)OC(C)C3O)OC(C)C2O)OC1C` (stereo partly specified): the TGI was over 100 µM in test [1]; 0.0827 µM in [2]; over 100 µM in [3]; over 100 µM in test [4]; 0.116 µM in test [5]; 0.222 µM in test [6]. For the same compound, the TGI is 0.101 µM in [7], 0.564 µM in test [8], 0.383 µM in test [9] and 0.203 µM in test [10]. Further, the GI50 in test [2] was under 0.01 µM.
For `CC(C)C[C@H]1C(=O)N2CCC[C@H]2[C@]2(O)O[C@](NC(=O)[C@@H]3C=C4c5cccc6[nH]c(Br)c(c56)C[C@H]4N(C)C3)(C(C)C)C(=O)N12`, the TGI in test [1], in test [2], in [3], in test [4], in test [5] and in test [6] was over 100 µM in each case. The TGI in test [7], in test [8], in [9] and in test [10] was over 100 µM in each case.
Consider `O=C(Nc1cc(C(F)(F)F)cc(C(F)(F)F)c1)Nc1ccc(OCc2nnc(-c3ccc(Cl)cc3)o2)c(F)c1`, for which the GI50 in test [1] is 2 µM; in [2], 1.91 µM; in test [3], 1.97 µM; in test [4], 0.802 µM; in test [5] it was 2.72 µM; in test [6], 2.72 µM. For the same compound, the GI50 in [7] is 1.08 µM; in test [8], 2.76 µM; in test [9] it was 1.02 µM; in [10] it was 1.85 µM. For the same compound, the TGI in test [1] was 4.68 µM; in test [2] it was 6.5 µM; in test [3], 9.44 µM; in test [4] it was 3.02 µM; in [5], 11.1 µM; in test [6] it was 12 µM. Also, the TGI is 3.92 µM in test [7], 13.7 µM in test [8], 5.3 µM in test [9] and 8.04 µM in test [10].
Take `CC(C)c1ccc(/C=N/N=C(N)N)cc1`: the GI50 in [1] was 12.4 µM; in test [2] it was 11.3 µM; in test [3], 4.91 µM; in test [4], 3.34 µM; in test [5], 2.02 µM; in test [6], 5.17 µM. The GI50 in test [7] is 3.5 µM; in test [8], 12.9 µM; in test [9] it was 3.6 µM; in test [10], 2.03 µM. The TGI in test [1] amounted to 27.3 µM; in test [2] it was 23.8 µM; in [3], 18.8 µM; in [4], 11.8 µM; in test [5], 4.2 µM; in [6], 32.6 µM. Further, the TGI in test [7] stood at 11.6 µM; in test [8], 30.2 µM; in [9], 16.4 µM; in test [10], 5.53 µM.
